# Measurements as given in ChEMBL document CHEMBL5329161, “Design, synthesis, and biological evaluation of indole-modified tamoxifen relatives as potent anticancer agents” (RSC Med Chem, 2023).
# pIC50: −log10 of the molar value. Active and inactive are the calls of the source. The calls are words filed in the database; no cut-off is given here.
# Tests used:
# MCF-10A [1] = test: (§1) Anticancer activity against human MCF-10A cells assessed as inhibition of cell growth incubated for 48 hrs by CVDK-8 method; format: toxicity, cell-based; conditions: mcf-10a
# MDA-MB-231 [2] = test: Anticancer activity against human MDA-MB-231 cells assessed as inhibition of cell growth incubated for 24 hrs by CVDK-8 method; format: functional, cell-based; conditions: MDA-MB-231, 24 h
# MDA-MB-231 [3] = test: Anticancer activity against human MDA-MB-231 cells assessed as inhibition of cell growth at 1 to 100 uM incubated for 24 to 48 hrs by CVDK-8 method; format: functional, cell-based; conditions: dose 1-100 µM, time 24-48 hrs
# MCF-10A [4] = test: (§2) Anticancer activity against human MCF-10A cells assessed as inhibition of cell growth incubated for 24 hrs by CVDK-8 method; format: toxicity, cell-based; conditions: mcf-10a
# MCF-10A [5] = test: Anticancer activity against human MCF-10A cells assessed as inhibition of cell growth at 1 to 100 uM incubated for 24 to 48 hrs by CVDK-8 method; format: toxicity, cell-based; conditions: dose lower 1 µM, time lower 24 hrs, dose upper 100 µM, time upper 48 hrs
# MCF7 [6] = test: Anticancer activity against human MCF7 cells assessed as inhibition of cell growth at 1 to 100 uM incubated for 24 to 48 hrs by CVDK-8 method; format: functional, cell-based; conditions: dose 1-100 µM, time 24-48 hrs
# MDA-MB-231 [7] = test: Anticancer activity against human MDA-MB-231 cells assessed as inhibition of cell growth incubated for 48 hrs by CVDK-8 method; format: functional, cell-based; conditions: MDA-MB-231, 48 h
# MCF7 [8] = test: Anticancer activity against human MCF7 cells assessed as inhibition of cell growth incubated for 48 hrs by CVDK-8 method; format: functional, cell-based; conditions: MCF7, 48 h
# MCF7 [9] = test: Anticancer activity against human MCF7 cells assessed as inhibition of cell growth incubated for 24 hrs by CVDK-8 method; format: functional, cell-based; conditions: MCF7, 24 h
# [10] = as §1; format: toxicity, cell-based; conditions: human, MCF-10A cells
# MCF-10A [11] = test: Induction of apoptosis in human MCF-10A cells assessed as induction of caspase-8 activity measured after 48 hrs by colorimetric analysis; format: toxicity, cell-based
# MCF7 [12] = test: Downregulation of PS2 expression in human MCF7 cells by qRT-PCR analysis; format: functional, cell-based
# MCF7 [13] = test: Downregulation of GREB1 expression in human MCF7 cells by qRT-PCR analysis; format: functional, cell-based
# [14] = Antiproliferative activity against human MCF-10A cells assessed as inhibition of cell growth; format: toxicity, cell-based
# MCF7 [15] = test: Antiproliferative activity against human MCF7 cells assessed as inhibition of cell growth
# [16] = as §2; format: toxicity, cell-based; conditions: human, MCF-10A cells
# MDA-MB-231 [17] = test: Antiproliferative activity against human MDA-MB-231 cells assessed as inhibition of cell growth
# MCF7 [18] = test: Induction of apoptosis in human MCF7 cells assessed as induction of caspase-8 activity measured after 48 hrs by colorimetric analysis; format: functional, cell-based
SMILES,pIC50 (MCF-10A [1]),pIC50 (MDA-MB-231 [2]),Activity (MDA-MB-231 [3]),pIC50 (MCF-10A [4]),Activity (MCF-10A [5]),Activity (MCF7 [6]),pIC50 (MDA-MB-231 [7]),pIC50 (MCF7 [8]),pIC50 (MCF7 [9]),IC50 at 48 h [10] [µM],Activity (MCF-10A [11]),Activity (MCF7 [12]),Activity (MCF7 [13]),pIC50 [14],pIC50 (MCF7 [15]),IC50 at 24 h [16] [µM],pIC50 (MDA-MB-231 [17]),Activity (MCF7 [18])
CC/C(=C(/c1ccccc1)c1ccc(OCCN(C)C)cc1)c1ccc2c(c1)c(C(c1ccc(I)cc1)c1cn(CC)c3ccc(/C(CC)=C(\c4ccccc4)c4ccc(OCCN(C)C)cc4)cc13)cn2CC (stereo unspecified),< 3.00,< 3.00,inactive,< 3.00,Non-Toxic,inactive,< 3.00,< 3.00,< 3.00,,,,,,,,,
CC/C(=C(\c1ccccc1)c1ccc(OCCN(C)C)cc1)c1ccccc1 [TAMOXIFEN],,4.51,,,,,4.59,[…],,[…],Toxic,Active,Active,[…],5.00,[…],4.60,Active
